Experiments:
Colinus virginianus = settings: acute, oral, mortality
Apis mellifera = settings: acute, mortality
Bibionidae = settings: chronic/long-term; duration: 28 days
Canidae = settings: chronic; duration: 1 years; oral; Dog Other; clinical chemistry
Daphnia magna = settings: chronic/long-term; duration: 21 days; reproduction
Pimephales promelas = settings: chronic/long-term; duration: 28 days; growth
Aphidius rhopalosiphi = assay: LR50; higher = less toxic; settings: not reported; mortality

Structure (SMILES)	LC50 (Colinus virginianus; diet)	NOEC (Anas platyrhynchos; reproductive)	LC50 (Anas platyrhynchos; short-term, oral, feed, mortality)	LD50 (Apis mellifera; dermal)	LD50 (Apis mellifera; oral, unspecified)	NOEC (Bibionidae)	NOAEL (Canidae)	LD50 (Colinus virginianus)	NOEC (Daphnia magna)	NOEC (Pimephales promelas)	LD50 (Rattus norvegicus; acute, mortality)	NOAEL (Rattus norvegicus; chronic, duration: 2 years, oral, diet, organ weight)	NOAEL (Rattus norvegicus; reproduction developmental, body weight)	NOAEL (Rattus norvegicus; reproduction developmental, reproduction)	LC50 (Tagia sp.; acute, duration: 14 days, mortality)	NOEC (Tagia sp.; chronic/long-term, duration: 4 weeks)	LR50 (Aphidius rhopalosiphi)
NC(Cc1ncn[nH]1)C(=O)O (configuration not stated) [1,2,4-Triazole-3-alanine]	> 5000 mg/kg	–	–	–	–	–	–	–	–	–	–	–	–	–	–	–	–
FC(F)C(F)(F)OCC(Cn1cncn1)c1ccc(Cl)cc1Cl (configuration not stated) [Tetraconazole]	–	1.6 mg/kg-day	55.5 mg/kg-day	63 µg/piece	> 130 µg/piece	4.45 mg/L	2.95 mg/kg-day	132 mg/kg-day	0.19 mg/L	0.3 mg/L	1030 mg/kg-day	0.4 mg/kg-day	5 mg/kg-day	3.6 mg/kg-day	71 mg/kg	≤ 8.2 mg/kg	125 g/ha

From EPA's ToxValDB 9.5 (doi:10.2903/j.efsa.2008.152r)
